Laboratory results taken from publication PMC8161026, “Synthesis and Anticancer Activity Evaluation of 5-[2-Chloro-3-(4-nitrophenyl)-2-propenylidene]-4-thiazolidinones” (Molecules, 2021).
Blank lines part the entries; values can stand above or below the compound they belong to.

Assays:
[1] = in vitro; conditions: human
Protocol: (§1) Another part of our study was to determine the influence of compounds 2f, 2i, 2j, and 2h on normal human blood lymphocytes (Figure 5). […] Thus, normal blood lymphocytes are blood cells, as well as cells of leukemia cell lines, therapeutic index (TI) of compounds 2f, 2h, and 2j was calculated as GI50 (normal blood lymphocyte)/GI50 (leukemia cell line) (Table 5).
(§2) Figure 5 Human lymphocyte viability after 48 h of 2f, 2i, 2j, 2h, and Ciminalum drug exposure was estimated by MTT assay.
(§3) The assay was performed by using 3-(4,5-dimethylthiazole-2-yl)- 2,5-diphenyltetrazolium bromide (MTT). Confluent cells, cultured for 24 h with 0.1, 1, 5, 10, 20, 30, and 100 µM concentrations of studied compounds in 24-well plates were washed with PBS. MTT was dissolved in PBS, and 25 µL were added to each well. Plates were incubated for 4 h at 37 °C in 5% CO2 in an incubator. The medium with MTT was removed, and 1 mL of DMSO was added to the attached cells. Furthermore, cells were incubated for 5–10 min in RT and then 10 µl of Sorensen buffer was added to each well. The absorbance of converted dye in living cells was measured at a wavelength of 570 nm. The cell viability of breast cancer cells, gastric cancer cells, and human colon cancer cells cultured in the presence of ligands was calculated as percent of control cells.
(§4) First, 20 mL of venous blood was taken from volunteers (Ethical protocol number 2, 27 January 2019) and collected in the presence of 200 μL of undiluted fresh heparin (1/100). Sterile blood was diluted 2 times with 0.9% NaCl under the sterile conditions. Isolation of lymphocytes was performed in a density gradient of ficol-verografin using the protocol of the manufacturer (Lympoprep, NYCOMED PHARMA AS, Oslo Norway). The resulting lymphocytes were resuspended in the RPMI-1640 medium and cultured for several days (up to 10 days). To separate the lymphocytes from the monocytes, cell suspension was left for 24 h. After 24 h of culture, monocytes were attached, while lymphocytes were transferred to a fresh Falcon tube (15 mL). To stimulate the proliferation of lymphocytes, they were cultured on CD3+ antibody-coated plastic plate in the RPMI-1640 medium supplemented with 20% FBS.

[2] = system: AGS (gastric cancer); experiment: MTT cell viability assay; format: cell-based; conditions: Homo sapiens, 24 h
Protocol: (§5) In the second stage of the research, Ciminalum-thiazolidinone hybrids were investigated for antitumor activity on the lines of gastric cancer (AGS), human colon cancer (DLD-1), and breast cancers (MCF-7 and MDA-MB-231). The study was performed in the MTT assay according to the method described previously. The studied cancer line was sensitive to the action of the studied compounds that inhibited its growth in micromolar ranges of GI50. The hit compounds that inhibited the growth of all four cancer lines with the lowest GI50 values were [5-[2-chloro-3-(4-nitrophenyl)prop-2-enylidene]-rhodanines 2c, 2d, 2h, and 2i (Table 4).

[3] = system: MCF-7 (breast cancer); experiment: MTT cell viability assay; format: cell-based; conditions: Homo sapiens, MCF7; MCF-7, MTT, 24 h
Protocol: as §5

[4] = system: DLD-1 (human colon cancer); experiment: MTT cell viability assay; format: cell-based; conditions: DLD-1, MTT, 24 h
Protocol: as §5

[5] = system: MDA-MB-231 (breast cancer); experiment: MTT cell viability assay; format: cell-based; conditions: Homo sapiens; MDA-MB-231, MTT, 24 h
Protocol: as §5

[6] = system: normal human blood lymphocytes; experiment: in vitro
Protocol: as §1, §2, §3, §4

[7] = system: breast cancer lines MCF-7 and MDA-MB-231; experiment: MTT cell viability assay, both breast cancer lines; format: cell-based; conditions: Homo sapiens; MCF-7 and MDA-MB-231, MTT; read-out: GI50 level
Protocol: as §5

[8] = system: Jurkat T-cells; parameters: method as in doi:10.7124/bc.00003D; conditions: cited from earlier work

Compound: O=C/C(Cl)=C/c1ccc([N+](=O)[O-])cc1 [Ciminalum, (2Z)-2-chloro-3-(4-nitrophenyl)prop-2-enal, reference compound]
- GI50 at 48 h [1]: 10.4 µM

Compound: O=C(NN1C(=O)/C(=C/C(Cl)=C/c2ccc([N+](=O)[O-])cc2)SC1=S)c1csc2c1CCCC2 [Compound 2d, 5-[(Z,2Z)-2-Chloro-3-(4-nitrophenyl)-2-propenylidene]-4-oxo-3-(4,5,6,7-tetrahydrobenzo[b]thiophen-3-ylcarboxamido)-2-thioxo-4-thiazolidinone]
- melting point: > 230 °C
- GI50 [2]: 4.08 µM
- GI50 [3]: 4.45 µM
- GI50 [4]: 5.47 µM
- GI50 [5]: 3.11 µM

Compound: O=C(Cc1ccccc1Nc1c(Cl)cccc1Cl)NN1C(=O)/C(=C/C(Cl)=C/c2ccc([N+](=O)[O-])cc2)SC1=S [Compound 2e, N^1-{5-[(Z,2Z)-2-Chloro-3-(4-nitrophenyl)-2-propenylidene]-4-oxo-2-thioxothiazolidin-3-yl}-2-[2-(2,6-dichloroanilino)phenyl]acetamide]
- melting point: 257 to 258 °C
- GI50 [2]: 17.1 µM
- GI50 [3]: 17.9 µM
- GI50 [4]: 16 µM
- GI50 [5]: 15.8 µM

Compound: O=C(O)CCCCCN1C(=O)/C(=C/C(Cl)=C/c2ccc([N+](=O)[O-])cc2)SC1=S [Compound 2i, 6-{5-[(Z,2Z)-2-Chloro-3-(4-nitrophenyl)-2-propenylidene]-4-oxo-2-thioxothiazolidin-3-yl}hexanoic acid]
- melting point: > 220 °C
- GI50 [7]: 0.95 to 1.74 µM
- GI50 [2]: 3.2 µM
- GI50 [3]: 1.73 µM
- GI50 [4]: 9.22 µM
- GI50 [5]: 0.95 µM
- toxicity toward normal human blood lymphocytes [6]: low toxicity
- GI50 at 48 h [1]: > 100 µM

Compound: O=C1NC(=N/c2ccc(F)cc2)/C(=C/C(Cl)=C/c2ccc([N+](=O)[O-])cc2)S1 [III]
- caspase-7 activation [8]: weak
- cleavage of PARP-1 and DFF45 [8]: weak

The next lines start with results.

- melting point: > 270 °C
- GI50 [2]: 18.7 µM
- GI50 [3]: 18 µM
- GI50 [4]: 14 µM
- GI50 [5]: 13.9 µM
Compound: O=C1NC(=O)/C(=C/C(Cl)=C/c2ccc([N+](=O)[O-])cc2)S1 [Compound 2a, 5-[(Z,2Z)-2-Chloro-3-(4-nitrophenyl)-2-propenylidene]-2,4-thiazolidinedione]

- melting point: > 260 °C
- GI50 [2]: 18 µM
- GI50 [3]: 26.4 µM
- GI50 [4]: 27.5 µM
- GI50 [5]: 16.8 µM
Compound: O=C1/C(=C/C(Cl)=C/c2ccc([N+](=O)[O-])cc2)SC(=S)N1CCS(=O)(=O)O [Compound 2g, 2-{5-[(Z,2Z)-2-Chloro-3-(4-nitrophenyl)-2-propenylidene]-4-oxo-2-thioxothiazolidin-3-yl}-1-ethanesulfonic acid]
- toxicity toward normal human blood lymphocytes [6]: low toxicity

- melting point: 220 to 222 °C
- GI50 [2]: 13.1 µM
- GI50 [3]: 18.1 µM
- GI50 [4]: 10 µM
- GI50 [5]: 15.3 µM
Compound: O=C(O)CC(C(=O)O)N1C(=O)/C(=C/C(Cl)=C/c2ccc([N+](=O)[O-])cc2)SC1=S (stereo not drawn) [Compound 2k, 2-{5-[(Z,2Z)-2-Chloro-3-(4-nitrophenyl)-2-propenylidene]-4-oxo-2-thioxothiazolidin-3-yl}succinic acid]

- melting point: 205 to 207 °C
- GI50 [2]: 12.6 µM
- GI50 [3]: 21.2 µM
- GI50 [4]: 9.19 µM
- GI50 [5]: 17.5 µM
Compound: O=C(O)CCC(C(=O)O)N1C(=O)/C(=C/C(Cl)=C/c2ccc([N+](=O)[O-])cc2)SC1=S (stereo not drawn) [Compound 2l, 2-{5-[(Z,2Z)-2-Chloro-3-(4-nitrophenyl)-2-propenylidene]-4-oxo-2-thioxothiazolidin-3-yl}pentanedioic acid]
